For the assay, the system named is CEM cells HIV-1 protection, formazan growth assay. Put plainly: NCI AIDS Antiviral Assay. The note with it: for pIC50: measured here: growth of uninfected CEM cells. An outline of the steps:
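Five concentrations of each compound were applied to infected and uninfected human CEM cells. Protection from HIV-1 was judged from growth measured with a soluble formazan assay.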

pEC50, pIC50: −log10 of the molar value. Active and inactive are the calls of the source.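 The calls were made as follows: active = compounds giving half or more protection of infected cells from virus-caused growth loss, again on retest; inactive = the rest.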 Some results are limits rather than exact numbers.

As usually defined, the pEC50 is −log10 of the EC50, conventionally taken in molar units. What is called pIC50 is the IC50 on a negative log10 scale, so that one unit is a factor of ten.

Consider `CCC(C(=O)C(=O)OC)P1(=O)OC(C)(C)CN1C(C)(C)C` (stereo unspecified), for which the pEC50 was below 3.70 and the pIC50 is below 3.70.
Regarding `CCCCCC1CC=CC(NC(=O)OCc2ccccc2)C1/C=C/C(=O)CCCCCOC(=O)c1ccc(Br)cc1` (stereo unspecified), the outcome was inactive.
Take `CCOC(=O)c1c(C)[nH]c(=S)c(C#N)c1-c1ccc(OC)cc1`: the pEC50 was below 3.70 and the pIC50 was 4.09.
The corresponding values for `CC(=O)Nc1ccc2nncnc2c1` are below 3.70 and below 3.70.
The corresponding values for `COc1ccc(/C=N/Nc2nnc3c(n2)[nH]c2ccc(Br)cc23)cc1` are below 3.70 and below 3.70.
Consider `CCC(C)(C)c1ccc(OCCCCNC(=O)c2ccc3ccccc3c2O)c(C(C)(C)CC)c1`, for which the pEC50 is below 3.70 and the pIC50 is 5.13.
The corresponding values for `O=C1C=CC(=O)c2c1c1c(c3c2C2c4ccccc4C3c3ccccc32)C2c3ccccc3C1c1ccccc12` are below 4.99 and below 4.99.
The matching figures for `O=c1[nH]c(=O)n(COCCO)c2ccc(Br)cc12`: below 3.70 and below 3.70.
The matching figures for `CCOC(=O)C(CCc1ccccn1)C(C)=O` (stereo unspecified): below 3.70 and below 3.70.
Consider `NS(=O)(=O)c1nnc(NSc2ccc([N+](=O)[O-])cc2)s1`, for which the pEC50 was below 3.70 and the negative-log IC50 (pIC50) is 4.33.
The corresponding values for `O=c1oc2c(c(=O)n1-c1ccccc1)CC1(CCCCC1)C2` are below 3.70 and below 3.70.
The corresponding values for `c1ccc(CN2COc3c(ccc4c5c(ccc34)CN(Cc3ccccc3)CO5)C2)cc1` are below 5.61 and below 5.61.
The matching figures for `O=c1[nH]c(Nc2cccc(C(F)(F)F)c2)nc2nc[nH]c12`: below 3.70 and 4.01.
`CC1OC(OCC2OC(Oc3c(-c4ccc(O)c(O)c4)oc4cc(O)cc(O)c4c3=O)C(O)C(O)C2O)C(O)C(O)C1O` (stereo unspecified): the pEC50 is below 3.70, the outcome was inactive and the pIC50 was 5.99.
As for `CC(NC(=O)c1ccccc1)NC(=O)C(C)C(=O)Nc1ccccc1` (stereo unspecified), the outcome was inactive.
On to `CCOC(=O)c1c(N2CCOCC2)[nH]c(=O)c(C(c2ccco2)c2c(O)c(C(=O)OCC)c(N3CCOCC3)[nH]c2=O)c1O`, for which the pEC50 is below 3.70 and the pIC50 was below 3.70.
As to `Cc1cc2c(=O)c3ccccc3oc2c(C(=O)O)c1C`, the pEC50 was below 3.70 and the pIC50 is below 3.70.
Turning to `O=c1c2cc3c(cc2[nH]c2ncccc12)OCO3`, the pEC50 is below 3.70 and the pIC50 is 3.84.
For the molecule `C=C1CN(S(=O)(=O)c2ccc(C)cc2)CCCN(Cc2ccccc2)CCN(S(=O)(=O)c2ccc(C)cc2)C1`, the pEC50 is below 3.70 and the pIC50 was 3.81.
The corresponding values for `CCOC(=O)CC(NCCSS(=O)(=O)O)C(=O)OCC` (stereo unspecified) are below 3.70 and below 3.70.
`COc1cccc(C2C3=C(COC3=O)Oc3cc4c(cc32)OCO4)c1` (stereo unspecified): the pEC50 was below 5.70 and the pIC50 was 7.07.
Consider `O=c1[nH]c2nn(-c3ccccc3)cc2c(=O)n1OS(=O)(=O)c1ccccc1`, for which the pEC50 is below 3.70 and the pIC50 was below 3.70.
With `CC(C)=CCN1Cc2cccc([N+](=O)[O-])c2NC[C@@H]1C`, the pEC50 is below 4.07 and the pIC50 was below 4.07.
`CCCCCCSCC/C(C)=N\OC`: the pEC50 was below 3.70 and the pIC50 was below 3.70.
As to `CCc1cccc(C(C)C)c1NC(=O)C(=O)C(Cc1nc2ccccc2[nH]c1=O)C(=O)OC` (stereo unspecified), the pEC50 was below 3.95 and the pIC50 was below 3.95.
Consider `S=C1CCSc2c(ccc3ccccc23)N1`, for which the pEC50 was below 3.70 and the pIC50 was 3.78.
The corresponding values for `O=c1c2cc([N+](=O)[O-])ccc2n2n1Cc1ccccc1CC2` are below 3.70 and below 3.70.
Regarding `O=C(O)c1cc(Cc2cc(C(=O)O)c(O)c3ccccc23)c2ccccc2c1O`, the pEC50 was below 6.09 and the pIC50 was below 6.09.
`COc1ccc(-c2nc(-c3cnccn3)n(C3OC(CO)C(O)C(O)C3O)n2)cc1` (stereo unspecified): the pEC50 is below 3.70 and the negative-log IC50 (pIC50) is below 3.70.
Take `Cc1cnc([C@H]2CCC3[C@@H]4CC=C5C[C@@H](OC(=O)CCC(=O)O)CC[C@]5(C)C4CC[C@@]32C)s1` (stereo partly specified): the pEC50 is below 4.28 and the pIC50 is 4.30.
The matching figures for `CC(C)/C(Cl)=N/OC(=O)Nc1ccc(Cl)c(Cl)c1`: below 4.70 and 5.50.
On to `O=S1(=O)NNC(=NCc2ccc(Cl)cc2)c2ccccc21`, for which the outcome was inactive.
Turning to `NC1CC=C(COC(=O)C(O)(c2ccccc2)C2CC2)CC1` (stereo unspecified), the pEC50 was below 3.70 and the pIC50 was below 3.70.
Regarding `O=S(=O)(F)c1cccc(C[P+](c2ccccc2)(c2ccccc2)c2ccccc2)c1`, the pEC50 was below 3.70 and the negative logarithm of the IC50 (pIC50) is 4.29.
With `COC(=O)[C@]1(Cc2ccc3ccccc3c2)CCCCCCN1C(=O)c1ccccc1`, the outcome was inactive.
With `O=Nc1c(-c2ccccc2)nc2ccccn12`, the pEC50 is below 3.70 and the pIC50 is 4.41.
The matching figures for `C=C(C)CC(C)(c1cc2ccccc2n1C)N1CCOCC1` (stereo unspecified): below 4.00 and 4.19.
Turning to `CN1CCC(O)(C(C)(C)C)CC1`, the pEC50 is below 3.70 and the pIC50 was below 3.70.
On to `O=c1oc2ccccc2nc1/C=C(\O)c1ccc(Cl)cc1`, for which the pEC50 was below 3.70 and the pIC50 was 4.19.
Regarding `CCOC(=O)C1=c2[nH]c(O)c(C(=O)OCC)c2=NC1=O`, the pEC50 was below 5.29 and the pIC50 is below 5.29.
With `CC(=O)NCC1(c2ccccc2)CCN(CC2COc3ccccc3O2)CC1` (stereo unspecified), the pEC50 was below 3.70 and the pIC50 was below 3.70.
As to `CC(=C/c1ccccc1)/C=C1/NC(=S)NC1=O`, the pEC50 is below 3.70 and the pIC50 is below 3.70.
For the molecule `Cc1c2c(n3c(nc4ccccc43)c1C#N)SCC2`, the pEC50 is below 3.70 and the pIC50 is below 3.70.
Consider `CC(=O)OC12/C(=N/O)CCCCCC1c1ccccc12` (stereo unspecified), for which the pEC50 was below 3.70 and the negative-log IC50 (pIC50) is below 3.70.
Regarding `CCO/C(O)=c1/s/c(=C2/SC(=S)N(c3ccc(C)cc3)C2=O)n(-c2ccccc2)c1=N`, the pEC50 is below 5.80 and the pIC50 was below 5.80.
Turning to `O=C(c1nc2ccc(Cl)cc2[nH]c1=O)C(O)c1ccccc1` (stereo unspecified), the pEC50 was below 3.24 and the pIC50 is 4.94.
The corresponding values for `CN1C(=O)C(O)(Cc2nccc3ccccc23)c2ccccc21` (stereo unspecified) are below 3.70 and 4.44.
For `CC(=O)OC1CC2C(C)(C)C(=O)C=C[C@]2(C)C2CCC3(C)C(=CC(=O)C3c3ccoc3)[C@]12C` (stereo partly specified), the pEC50 is below 4.65, the result was inactive and the pIC50 was 4.85.
As to `O=c1c2ccccc2c2c3c1cccc3c1cccc3c(=O)c4ccccc4c2c31`, the pEC50 was below 5.15 and the pIC50 was below 5.15.
Turning to `COC(=O)c1cc(C(c2cc(C)c(O)c(C(=O)OC)c2)c2cc(C)c(O)c(C(=O)OC)c2)cc(C)c1O`, the result was inactive.
On to `Cc1ccc(S(=O)(=O)N2CCSCCSCCN(S(=O)(=O)c3ccc(C)cc3)CCN(S(=O)(=O)c3ccc(C)cc3)CC2)cc1`, for which the pEC50 was below 4.85 and the pIC50 was below 4.85.
As for `CCc1nc(N)nc(N)c1-c1ccc(Cl)c(N=NN(C)C)c1`, the pEC50 is below 6.00 and the negative-log IC50 (pIC50) is 6.23.
Turning to `O=C1NN=C(c2c[nH]c3ccccc23)CC1NCc1ccccc1` (stereo unspecified), the pEC50 was below 3.70 and the negative logarithm of the IC50 (pIC50) was below 3.70.
As to `CCOC(=O)C(NC(=O)c1ccccc1)(N1CCOCC1)C(F)(F)F` (stereo unspecified), the pEC50 was below 3.70 and the negative logarithm of the IC50 (pIC50) is below 3.70.
With `CCC(O)(COC(N)=O)c1ccccc1` (stereo unspecified), the pEC50 was below 3.70 and the pIC50 was below 3.70.
As for `O=C(CC(C(=O)c1cccs1)c1cccs1)c1ccccc1Cl` (stereo unspecified), the pEC50 was below 3.70 and the negative logarithm of the IC50 (pIC50) is 4.73.
In the case of `Cc1ccc(S(=O)(=O)N2C[C@](O)(c3ccccc3)[C@H]2C)cc1`, the pEC50 was below 3.70 and the pIC50 was 3.71.
The corresponding values for `Cc1ccc2c3c(cnc2n1)C(=O)OCCN3C` are below 3.70 and below 3.70.
The corresponding values for `C/C(Cl)=N\OC(=O)Nc1ccc(C)cc1` are below 3.70 and 4.73.
In the case of `COc1cc(C(=O)O[C@@H]2[C@@H](OC(=O)c3cc(OC)c(OC)c(OC)c3)[C@@H](OC)O[C@@H]3CO[C@@H](c4ccccc4)O[C@@H]23)cc(OC)c1OC`, the pEC50 is below 3.70 and the pIC50 was below 3.70.
For `O=c1c2cncnc2sc2nc3ccccc3n12`, the pEC50 is below 3.70 and the negative logarithm of the IC50 (pIC50) was below 3.70.
Take `COn1oc(=O)c2ccccc21`: the pEC50 was below 3.70 and the pIC50 is below 3.70.
As to `CCCN1C(=O)c2cc(=O)n(Cc3ccccc3)c(O)c2C1C` (stereo unspecified), the pEC50 is below 3.94 and the pIC50 was below 3.94.
`Nc1nc(Nc2ccccc2)sc1O`: the pEC50 is below 3.70 and the pIC50 was 3.71.
As to `COc1cc(/C=C2/SC(c3ccccc3)N(Cc3ccccc3)C2=O)cc(OC)c1OC` (stereo unspecified), the pEC50 is below 3.70 and the negative-log IC50 (pIC50) is 4.59.
The matching figures for `CN(N=O)C(=O)NC(C=O)C(O)C(O)C(O)CO` (stereo unspecified): below 3.70 and below 3.70.
As for `CC(C)SSC(=O)N1CCCC1C(=O)O` (stereo unspecified), the pEC50 was below 3.70 and the pIC50 is below 3.70.
`Cc1ccc2c(c1)C(=O)N1CSCC1C(=O)S2` (stereo unspecified): the pEC50 is below 3.60 and the negative logarithm of the IC50 (pIC50) was 4.49.
The matching figures for `COc1ccc(-c2cc(=O)c3c(OC)c(OC)c(OC)c(OC)c3o2)cc1OC`: below 3.70 and 4.47.
In turn, `Nc1cc2nc3ccccc3sc-2cc1=O` gave a negative-log EC50 (pEC50) of 5.47 and a pIC50 of 4.22.
Regarding `CN1C(=O)C(C)(C)NS1(=O)=O`, the result was inactive.
The same measure, in the same setting: for `Cc1ccc(NC(=O)CC(=O)N2N=C(N(c3ccccc3)c3ccccc3)CC2c2ccccc2)cc1` (stereo unspecified) the value was “inactive”.
Turning to `CC1CN=C(Nc2cccc(C(F)(F)F)c2)S1` (stereo unspecified), the pEC50 was below 3.70 and the pIC50 is 4.24.
